Numbered stars: 1 amine (or outer) side, 2 acyl side, 3 side chain; on linkers, the order of the positions; unused ones are H or OH. Bridge positions count the residues as written; N and C are the ends. Square brackets hold non-standard residues; d marks the D form. Peptide text beside a SMILES is read from it. Abu(4-yl) = O=C([C@H](CC[*:3])N[*:1])[*:2]; hCys = N[C@@H](CCS)C(=O)O

Experiment [1] deals with anticardiolipin antibody (serum of patient ACA-6701). In words: competitive ELISA, binding of patient ACA-6701 serum to cardiolipin/β2-GPI coated plate. The following applies: amount of peptide that inhibited the human serum's binding by 50%; serum of patient ACA-6701 (GPL score 102). As for the experimental part: (§1) The binding affinities of a number of the thioether cyclic polypeptides of the present invention to anticardiolipin antibody were determined by a competitive ELISA (i.e., enzyme-linked immunosorbent assay) and compared with binding affinities of the corresponding disulfide cyclic polypeptides (e.g., 3G3, 2G3, and G3).
(§2) Of 96 wells of a flat-bottom Immulon I microtiter plate (Dynatech Labs, Alexandria, Va.), 94 wells were coated with […] cardiolipin per well in 30 mL, of ethanol. The remaining two wells were used as controls and each received 30 mL, of ethanol. After overnight evaporation at 4° C., the plate was blocked for 2 hours at room temperature with 200 mL of 5% (w/v) fish gelatin in phosphate buffered saline (i.e., PBS, 0.15 M NaCl and 0.01 M Na2 HPO4 at pH 7.2). The plate was washed five times in Tris buffered saline (i.e., TBS, 0.15 M NaCl and 0.05 M Tris-HCl at pH 8.5). Then, β2 -glycoprotein I (i.e., β2 -GPI) was added as […] of 2.3% (v/v) IgG-depleted human serum (Sigma Chemical Co.) and incubated for 2 hours at room temperature.
(§3) During this incubation, peptide solutions (around 2 mg/mL) were prepared by dissolving thioether cyclic peptides in 3% fish gelatin in TBS. The serums of patient ACA-6501, who has a GPL (i.e., IgG Phospholipid) score of 1500, and patient ACA-6701, who has a GPL score of 102, were diluted about 40-fold in 3% fish gelatin in TBS-PBS (1:1). Variable amounts of each of peptides were combined with 22 mL of each of the diluted human serums and then made up to the final volume of 220 mL with 3% fish gelatin in TBS-PBS (1:1). For each peptide, at least four peptide concentrations were employed and each data point was determined in duplicate.
(§4) After 5 washes with TFBS, 100 mL of the peptide/human serum solution was added and the microplate was agitated at 40 rpm in an orbital shaker (American Scientific, Rotator V) for one hour at room temperature. The plate was washed extensively with TBS (5 times) and 100 mL of diluted (1/1000) alkaline phosphatase-conjugated goat anti-human IgG (Zymed, South San Francisco, Calif.) in 0.5% (w/v) BSA-TBS was added to each well (i.e., bovine serum albumin, BSA). The plate was then incubated for one hour at room temperature followed by addition of […]/well of PPMP solution (3 g/L phenolphthalein monophosphate plus 26.7 g/L 2-amino-2-methyl-1-propanol in water). The plate was allowed to develop at room temperature for 21 min and the reaction was stopped by adding 50 mL of 0.2 M Na2 HPO4 (Mallinckrodt) to each well. Blanks consisted of protein-coated wells that received similar treatment except human serum was not added to these wells. The plate was read at 550 nm using a microplate reader (Bio-Tek Instruments, Model EL 311).
(§5) Absorbance vs. amount of peptide added was plotted using Graph Pad Prism (Graph Pad Software, Inc.). The amount of peptide that inhibited the human serum's binding by 50%, known as IC50, was calculated from the graph at the intersection of half-maximal absorbance with amount of peptide added.
Background: In an ELISA, binding on a coated surface is turned into a signal by an enzyme label.

The target of experiment [2] is anticardiolipin antibody (serum of patient ACA-6501). As to the kind of experiment: competitive ELISA, binding of patient ACA-6501 serum to cardiolipin/β2-GPI coated plate. Particulars: for IC50: amount of peptide that inhibited the human serum's binding by 50%, serum of patient ACA-6501 (GPL score 1500). Further details: species or system human. On the procedure:
as §1, §2, §3, §4, §5

For the compound `CC(C)C[C@@H]1NC(=O)[C@H](CCCCN)NC(=O)CNC(=O)[C@H](CC(C)C)NC(=O)[C@H](C(C)C)NC(=O)CNC(=O)[C@H](CC(C)C)NC(=O)[C@H](NC(=O)[C@@H]2CCCN2C(=O)CN)CSCC[C@@H](C(=O)N2CCC[C@H]2C(=O)NCC(=O)O)NC1=O` (single isomer, unassigned) [d-2G3-METE], the IC50 (in general, the concentration at which inhibition is half-maximal) in experiment [1] was 436 µM; in experiment [2] it was 100 µM.
Consider `CC(C)C[C@@H]1NC(=O)[C@@H](NC(=O)[C@@H]2CCCN2C(=O)CN)CSCC[C@@H](C(=O)N2CCC[C@H]2C(=O)NCC(=O)O)NC(=O)[C@H](CC(C)C)NC(=O)[C@H](CCCCN)NC(=O)CNC(=O)[C@H](CC(C)C)NC(=O)[C@H](C(C)C)NC(=O)CNC1=O` (single isomer, unassigned) [l-2G3-METE], for which the IC50 in experiment [1] stood at 486 µM; in experiment [2], 209 µM.
On to `CC(C)C[C@@H]1NC(=O)C(NC(=O)[C@@H]2CCCN2C(=O)CN)CSC[C@@H](C(=O)N2CCC[C@H]2C(=O)NCC(=O)O)NC(=O)[C@H](CC(C)C)NC(=O)[C@H](CCCCN)NC(=O)CNC(=O)[C@H](CC(C)C)NC(=O)[C@H](C(C)C)NC(=O)CNC1=O` (stereo partly shown) [2G3-MMTE], for which the IC50 in experiment [1] and in experiment [2] was above 678 µM in each case.
Compound `CC(C)C[C@@H]1NC(=O)[C@@H](NC(=O)[C@@H]2CCCN2C(=O)CNC(=O)[C@H](C)N)CCSC[C@@H](C(=O)N2CCC[C@H]2C(=O)NCC(=O)O)NC(=O)[C@H](CC(C)C)NC(=O)[C@H](CCCCN)NC(=O)CNC(=O)[C@H](CC(C)C)NC(=O)[C@H](C(C)C)NC(=O)CNC1=O` [3G3-EMTE] (H-AGP[Abu(4-yl)]LGVLGKLCPG-OH; thioether 4-12; N-terminus and C-terminus assumed) came in with an IC50 in experiment [2] of around 1120 µM.
For `CC(C)C[C@@H]1NC(=O)C(NC(=O)[C@@H]2CCCN2C(=O)CNC(=O)[C@H](C)N)CSC[C@@H](C(=O)N2CCC[C@H]2C(=O)NCC(=O)O)NC(=O)[C@H](CC(C)C)NC(=O)[C@H](CCCCN)NC(=O)CNC(=O)[C@H](CC(C)C)NC(=O)[C@H](C(C)C)NC(=O)CNC1=O` (stereo partly shown) [3G3-MMTE], the IC50 in experiment [1] and in experiment [2] was around 1050 µM throughout.
As to `CC(C)C[C@@H]1NC(=O)[C@H](CCCCN)NC(=O)CNC(=O)[C@H](CC(C)C)NC(=O)[C@H](C(C)C)NC(=O)CNC(=O)[C@H](CC(C)C)NC(=O)[C@@H](N)CCSCC[C@@H](C(N)=O)NC1=O` [G3-EETE] (H-[hCys]LGVLGKL[Abu(4-yl)]-NH2; thioether 1-9), the half-inhibitory concentration (IC50) in experiment [1] was found to be 40 µM; in experiment [2], 89 µM.
For the compound `CC(C)C[C@@H]1NC(=O)[C@H](CCCCN)NC(=O)CNC(=O)[C@H](CC(C)C)NC(=O)[C@H](C(C)C)NC(=O)CNC(=O)[C@H](CC(C)C)NC(=O)[C@@H](N)CCSC[C@@H](C(N)=O)NC1=O` [G3-EMTE] (H-[Abu(4-yl)]LGVLGKLC-NH2; thioether 1-9), the results for the IC50 in experiment [1] and in experiment [2] were 34 µM and 52 µM, respectively. In experiment [2] (general statement on Table 1 (sera ACA-6501 and ACA-6701)), the “biological activity in comparison with the corresponding disulfide cyclic peptide” value is “more active than the disulfide peptide G3”. Besides, the “activity relative to disulfide peptide G3” value in experiment [2] (patient ACA-6501) is on record as “about twice as active as G3”.
Regarding `CC(C)C[C@@H]1NC(=O)[C@H](CCCCN)NC(=O)CNC(=O)[C@H](CC(C)C)NC(=O)[C@H](C(C)C)NC(=O)CNC(=O)[C@H](CC(C)C)NC(=O)[C@@H](N)CSCC[C@@H](C(N)=O)NC1=O` [G3-METE] (H-CLGVLGKL[Abu(4-yl)]-NH2; thioether 1-9), the IC50 came to 36 µM in experiment [1] and 104 µM in experiment [2].
For the compound `CC(C)C[C@@H]1NC(=O)C(N)CSC[C@@H](C(N)=O)NC(=O)[C@H](CC(C)C)NC(=O)[C@H](CCCCN)NC(=O)CNC(=O)[C@H](CC(C)C)NC(=O)[C@H](C(C)C)NC(=O)CNC1=O` (stereo partly shown) [G3-MMTE], the IC50 in experiment [1] was 57 µM; in experiment [2], 126 µM.

Source of the values: patent US6031073A, “Cyclic polypeptides comprising a thioether linkage and methods for their preparation” (La Jolla Pharmaceutical Company, priority 1997, dated 2000).
